The results in this text go back to article PMC8662950, “Quantitative Determination and Toxicity Evaluation of Aristolochic Acid Analogues in Asarum heterotropoides F. Schmidt (Xixin) and Traditional Chinese Patent Medicines” (Frontiers in Pharmacology, 2021).

Like-named read-outs stand apart in the source and are kept apart here. Bounds are passed on as bounds.

The test system of one data set is ICR mice. The data set is described as follows: In vivo acute toxicity, single oral gavage dose, 14 days. Particulars: for Histopathology of liver tissues: AA I 20 and 40 mg/kg; for Serum AST, ALT, ALP, TBIL, TBA, CREA, BUN vs control group: single oral dose, day 14, AA I at 20 and 40 mg/kg. How it is done: The animal experiments were approved by the Research Ethics Committee of the Institute of Chinese Materia Medica, China Academy of Chinese Medical Sciences (ICMM, CACMS). The experiment was carried out according to ethical guidelines and regulations for the use of laboratory animals. A total of 160 ICR mice were randomly divided into 16 groups, each comprising 10 mice (5 males and 5 females). The drugs were administered in a single dose by oral gavage and the dose volume was 0.2 ml/10 g. The control group was treated with 0.5% CMC-Na. Other groups received AA I, AA II, AA IIIa, AA IVa, or AL I, at concentrations of 10, 20, and 40 mg/kg, respectively. Animal weights were recorded every two days. The animals were fasted overnight before experiments and sacrificed on day 14. Blood samples were collected and centrifuged for 15 min at 3,500×g. AST, ALT, ALP, CREA, BUN, TBA, and TBIL levels in plasma were examined. SPSS 17.0 (IBM Corp., United States) was used for the statistical and significance analyses. The renal and liver tissues were embedded and stained with H&E. Histological images were obtained through Olympus BX63 (Olympus Corporation, Japan) at a magnification of ×200.

The test system of another data set is renal cells of ICR mice. The data set is described as follows: Comet assay (DNA damage), renal cells. It counts as in vivo. The conditions noted are these: EMS 577.6 mg/kg; for Kidney Olive Tail Moment / Kidney Tail DNA%: AA analogues 20.0 mg/kg, three consecutive days, 5 animals/group, 100 cells; for DNA damage in renal cells (comet shape): AA analogues 20 mg/kg, three days. How it is done: (§1) ICR mice were separated into seven groups (n = 5 for each group) and administrated with saline, EMS (577.6 mg/kg), AA I (20 mg/kg), AA II (20 mg/kg), AA IIIa (20 mg/kg), AA IVa (20 mg/kg), or AL I (20 mg/kg) for three consecutive days, respectively. After anesthetization and perfusion, renal and liver tissues were obtained. Comet analysis was performed 2–6 h after the last […] and the processes were according to Günter Speit ([Speit and Rothfuss, 2012]). The Comet Assay software project (CASP) (V1.2.3) was used to analyze the fraction of tail DNA and the Olive Tail Moment. A total of one hundred cells from kidney or liver tissues of each animal were analyzed. The mean, standard deviation (SD) of tail DNA%, and the median of olive tail moment were calculated. Results were analyzed using SPSS 17.0 by one-way analysis of variance (ANOVA) followed by the least significance difference (LSD) test. The significant differences between the groups were tested and defined by p-value < 0.05.
(§2) Mice (n=35) were randomly divided into seven groups, with 5 mice in each group. Then they were administered with normal saline (NS), ethyl methanesulfonate (EMS) (577.6 mg/kg), and aristolochic acid analogues (20.0 mg/kg) for three days, respectively. After the final administration, mice were perfused and euthanized to obtain the renal and liver tissues.
(§3) The removed renal and liver tissues were minced into pieces and dispersed with 10 mL DMEM high-sugar culture medium. The mixture was filtered through a 200-mesh sieve and centrifuged at 800 rpm for 5 min. The supernatant was discarded and the cells were resuspended and centrifuged again. Then the cells were cultured in DMEM containing 10% FBS.
(§4) 25 μL single-cell suspension (5000 cells) with 75 μL of 0.7% low melting point agarose gel were mixed and 100 μL of the mixture was dropped on the bottom layer of agarose gel. The prepared glass slides were stored in the refrigerator at 4℃ for 4 min, and then dipped into the alkaline cell lysates for 2 h at 4℃. Slides were removed and rinsed with PBS buffer for 3 times.
(§5) The alkaline electrophoresis buffer (pH 13.0) precooled at 4℃ was put into the electrophoresis tank. The tank was covered to avoid light and remained static at 4℃ for 20 min. The voltage was set at 0.8 V/cm, and the current was 300 mA during the electrophoreses.
(§6) After 20 min, the slides were removed and the excess salt was washed away. The slides were washed by 0.4 mol/L precooled Tris-HCl buffer for 5 min and then dehydrated by ethanol for 15 min. Then the slides were stained with 30 μL PI staining solution (2 μg/mL) in the dark for 15 s, and washed in water several times.
(§7) A fluorescence microscope was used for visualization of DNA damage. A total of 100 randomly selected cells from kidney or liver tissues were analyzed. Parameters such as tail DNA percentage and Olive Tail Moment were calculated by the Comet Assay Software Project (CASP, V1.2.3).

The subject of data set [1] is hepatocyte cells of ICR mice. Nature of the data set: Comet assay (DNA damage), hepatocyte cells. The format is in vivo. Particulars: EMS 577.6 mg/kg; for Liver Olive Tail Moment / Liver Tail DNA%: AA analogues 20.0 mg/kg, three consecutive days, 5 animals/group, 100 cells; for DNA damage in hepatocyte cells (comet shape): AA analogues 20 mg/kg, three days. How it is done:
as §1, §2, §3, §4, §5, §6, §7

The subject of a further data set is HK-2 cells. The data set is described as follows: cells. The format is cell-based, human. Particulars: for IC50: Homo sapiens; for Cell viability: HK-2, 1,000 μM, 24 or 48 h. How it is done:
Cytotoxicity analysis was determined using the Cell Counting kit 8 (CCK8) (Bioss, China). HK-2 was cultured in DMEM/F12 (containing 10% fetal bovine serum, 100 U/ml penicillin, and 100 μg/ml streptomycin; Gibco, Invitrogen) at 37°C in 5% carbon dioxide incubator. The cells were maintained at 80% confluency and the medium was replaced every 3 days for routine cultivation. HK-2 cells (8,000 cells/well) were seeded in 96-well plates overnight. The cells were then treated with analogues of AA for 24 or 48 h at different concentrations (6.8, 27.0, 54.0, 108.0, 216.0, and 432.0 μM for AA I; 12.5, 25.0, 100.0, 200.0, 400.0, and 800.0 μM for AA II; 15.6, 62.5, 125.0, 250.0, 500.0, and 1000.0 μM for AA IIIa; 15.6, 31.3, 62.5, 125.0, 500.0, and 1,000.0 μM for AA IVa; 8.0, 16.0, 32.0, 64.0, 128.0, and 256.0 μM for AL I). Subsequently, the cells were incubated with 10% CCK8 solution for another 2 h. […] The absorbance (OD) of each well was measured with a spectrophotometer (Spark; Tecan, Switzerland) at 450 nm and the IC50 values were obtained by fitting the curve through nonlinear regression with GraphPad Prism 7.0 (GraphPad Software, CA, United States).

[2] abbreviates: 10, 20 mg/kg single oral dose, 14 days.
The mark [3] stands for this setting: 10, 20, 40 mg/kg single oral dose, male and female mice.
Where [4] appears, read: 10, 20, 40 mg/kg single oral dose, 14 days.

Molecule `COc1cccc2c1cc([N+](=O)[O-])c1c(C(=O)O)cc3c(c12)OCO3` [AA I, aristolochic acid I] registered a Survival rate in the data set on ICR mice (40 mg/kg single oral dose, 14 days, n = 10, deaths on days 4, 5 and 6) of 30%. The “Histopathology of renal tissues” value in the data set with ICR mice (40 mg/kg, H&E) is reported as “Significant lesions”. Moreover, the Death entry in the data set with ICR mice (setting [2]) is given as “no death”. The “Body weight change vs control group” value with ICR mice (setting [3]) is “remarkable reduction of body weight”. Besides, the “Histopathology of liver tissues” value with ICR mice (H&E) is “no corresponding pathological changes”. The “Serum AST, ALT, ALP, TBIL, TBA, CREA, BUN vs control group” value (“Serum AST, ALT, ALP … vs control group” for short) in the data set on ICR mice was “different levels of changes in serum levels of TBIL, ALP, BUN, and CREA”. Also, in the data set on renal cells of ICR mice, the “Kidney Olive Tail Moment” value stood at 7.45 ± 1.94 μm, the “Kidney Tail DNA%” value stood at 15.39 ± 1.75% and the “DNA damage in renal cells (comet shape)” value is “evident comet shape”. In addition, in data set [1], the “Liver Olive Tail Moment” value is recorded as 0.88±0.14 μm, the “Liver Tail DNA%” value is 2.92±0.54% and the “DNA damage in hepatocyte cells (comet shape)” value (“DNA damage in hepatocyte cells” for short) is “no DNA damage”. The IC50 (as a rule, the concentration needed to halve the response being measured) in the data set with HK-2 cells (HK-2, 24 h) was found to be 197 µM. Inhibition in the data set on HK-2 cells (HK-2, 48 h) was half-maximal at 76.7 µM (IC50).

With `COc1cccc2c1cc1c3c(cc4c(c32)OCO4)C(=O)N1` [AL I, aristolactam I], in the data set on ICR mice (10 mg/kg), the “Serum AST, ALT, ALP activity” value is “decreased AST, ALT, and ALP activity”. In addition, the Nephrotoxicity or hepatotoxicity entry in the data set on ICR mice (40 mg/kg) is “No distinct nephrotoxicity or hepatotoxicity”. Further, in the data set with ICR mice (setting [4]), the Death entry is recorded as “no death”. Further, the “Body weight change vs control group” value with ICR mice (setting [3]) is “no distinct changes in body weight”. The “Histopathology of liver tissues” value with ICR mice (H&E) was “No pathological changes”. For the same molecule, in the data set on ICR mice, the “Serum AST, ALT, ALP … vs control group” value is on record as “no significant difference”. In addition, in the data set on renal cells of ICR mice, the “Kidney Olive Tail Moment” value is given as 0.66±0.21 μm, the “Kidney Tail DNA%” value came out at 3.12±0.33% and the “DNA damage in renal cells (comet shape)” value is reported as “No DNA damage”. Besides, in data set [1], the “Liver Olive Tail Moment” value turned out to be 0.74±0.29 μm, the “Liver Tail DNA%” value was determined as 3.26±0.52% and the “DNA damage in hepatocyte cells” value was “No DNA damage”. The IC50 with HK-2 cells (HK-2, 24 h, read-out: IC50) is > 256 µM. Further, in the data set on HK-2 cells (HK-2, 48 h, read-out: IC50), the IC50 came out at 37.1 µM.

`O=C(O)c1cc2c(c3c1c([N+](=O)[O-])cc1ccc(O)cc13)OCO2` [AA IIIa, aristolochic acid IIIa]: the Nephrotoxicity or hepatotoxicity result with ICR mice (40 mg/kg) is given as “No distinct nephrotoxicity or hepatotoxicity”. In the data set on ICR mice (setting [4]), the Death result was “no death”. Moreover, in the data set with ICR mice (setting [3]), the “Body weight change vs control group” value is “no distinct changes in body weight”. Also, in the data set on ICR mice, the “Serum AST, ALT, ALP … vs control group” value is “no significant difference”. Also, in the data set with renal cells of ICR mice, the “Kidney Olive Tail Moment” value was 0.61±0.16 μm, the “Kidney Tail DNA%” value is 2.60±0.69% and the “DNA damage in renal cells (comet shape)” value was “No DNA damage”. Further, in data set [1], the “Liver Olive Tail Moment” value is 0.92±0.20 μm, the “Liver Tail DNA%” value was found to be 3.09±0.47% and the “DNA damage in hepatocyte cells” value was “No DNA damage”. Also, the Cell viability in the data set on HK-2 cells is given as ≥ 50 % of control.

Take `COc1cc(O)cc2c1cc([N+](=O)[O-])c1c(C(=O)O)cc3c(c12)OCO3` [AA IVa, aristolochic acid IVa]: in the data set on ICR mice (40 mg/kg), the Nephrotoxicity or hepatotoxicity entry is “No distinct nephrotoxicity or hepatotoxicity”. Also, in the data set on ICR mice (40 mg/kg, female mice, day 5, returned on day 7), the Body weight change result is on record as “drastic weight loss”. For the same molecule, in the data set on ICR mice (setting [4]), the Death entry is on record as “no death”. Moreover, in the data set with ICR mice (setting [3]), the “Body weight change vs control group” value is on record as “no distinct changes in body weight”. The “Serum AST, ALT, ALP … vs control group” value in the data set with ICR mice is reported as “no significant difference”. In addition, in the data set with renal cells of ICR mice, the “Kidney Olive Tail Moment” value is recorded as 0.57±0.22 μm, the “Kidney Tail DNA%” value came to 2.80±0.99% and the “DNA damage in renal cells (comet shape)” value is “No DNA damage”. In addition, in data set [1], the “Liver Olive Tail Moment” value is 0.81±0.14 μm, the “Liver Tail DNA%” value amounted to 2.98±0.22% and the “DNA damage in hepatocyte cells” value is recorded as “No DNA damage”. Besides, in the data set on HK-2 cells, the Cell viability is ≥ 50 % of control.

For the molecule `CCOS(C)(=O)=O` [EMS, ethyl methanesulfonate, reference compound], in the data set with renal cells of ICR mice, the “Kidney Olive Tail Moment” value stood at 23.01±4.09 μm, the “Kidney Tail DNA%” value was determined as 40.97±7.55 % and the “DNA damage in renal cells (comet shape)” value is reported as “significant comet tailing”. Also, in data set [1], the “Liver Olive Tail Moment” value is 33.60±6.11 μm, the “Liver Tail DNA%” value was found to be 55.18±6.23 % and the “DNA damage in hepatocyte cells” value is “significant comet tailing”.

`O=C(O)c1cc2c(c3c1c([N+](=O)[O-])cc1ccccc13)OCO2` [AA II, aristolochic acid II]: the Nephrotoxicity or hepatotoxicity entry in the data set with ICR mice (40 mg/kg) is “No distinct nephrotoxicity or hepatotoxicity”. In the data set with ICR mice (40 mg/kg single oral dose, n = 10, death on day 8), this molecule gave a Mice died of 10%. Besides, the Body weight change entry in the data set on ICR mice (40 mg/kg, male and female mice, first 10 days) is reported as “Slight weight loss”. In the data set with ICR mice (setting [2]), the Death entry was “no death”. In addition, in the data set on ICR mice, the “Serum AST, ALT, ALP … vs control group” value was “no significant difference”. Also, in the data set with renal cells of ICR mice, the “Kidney Olive Tail Moment” value came to 0.78±0.30 μm, the “Kidney Tail DNA%” value amounted to 3.08±0.25% and the “DNA damage in renal cells (comet shape)” value was “No DNA damage”. In addition, in data set [1], the “Liver Olive Tail Moment” value came out at 0.89±0.22 μm, the “Liver Tail DNA%” value was found to be 3.37±0.42% and the “DNA damage in hepatocyte cells” value is “No DNA damage”. Besides, in the data set with HK-2 cells (HK-2, 24 h, read-out: IC50), the IC50 was > 800 µM. Also, the IC50 in the data set with HK-2 cells (HK-2, 48 h, read-out: IC50) is 306 µM.
